Measured values taken from publication PMC8143647, “Proteomics of Galápagos Marine Iguanas Links Function of Femoral Gland Proteins to the Immune System” (Molecular & Cellular Proteomics : MCP, 2020).

Legend:
[1] = test system: Bacillus subtilis; assay: Antimicrobial activity, relative growth inhibition in broth microdilution (Gram-pos.); type: cell-based; set-up: key to Activity against Gram-pos.: ++: highly active (comparable to oncocin); +: moderately active; +/-: moderately active without clear dose dependency; -: no activity; conditions: for Activity against Gram-pos.: Bacillus subtilis in Miller-Hinton broth, inoculum 1-2 x 10^7 cfu/ml, 100 µl + 20 µl test substance, 2n dilution series from 1 mg/ml down to 31 µg/ml, 18-24 h 37 °C, photometer 600 nm, duplicates
Protocol: (§1) Test strains of Bacillus subtilis, Escherichia coli K12 or Escherichia coli BL21 were grown in Miller-Hinton broth (MHB) for 18–20 h at 37 °C with moderate shaking. An inoculum of 1–2 × 10^7 cfu/ml was prepared in fresh MHB and 100 µl of the suspension was pipetted into microtiter plate wells together with 20 µl test substance. Test substances were measured in duplicates. The plates were covered by a plastic seal to prevent evaporation and incubated for further 18–24 h at 37 °C with moderate shaking. The test substances were dissolved in water at a concentration of 1 mg/ml and a 2n dilution series down to 31 µg/ml was prepared in sterile PBS. After incubation, the bacterial growth was estimated with a Photometer at 600 nm and the relative growth inhibition was calculated compared with a control without test substance. As positive control the well-studied AMP oncocin was used.
(§2) We were intrigued by these antimicrobial signatures and sought to systematically analyze the proteome of femoral glands. To this end, we utilized the marine iguana protein database of all detected proteins, and generated a library of potential antimicrobial peptides (AMP) by in-silico sliding window digestion. Here, we generated sequence windows of 8 to 15 amino acids and resulting peptides were predicted for antimicrobial activity by a trained support vector machine (as described in the methods) (Fig. 5). […] To experimentally test the antimicrobial properties of these peptides, we determined growth rate reductions of bacterial cultures in the presence of increasing candidate peptide concentration. As positive control, we used the well-established AMP oncocin ([40]). As negative control, we have picked four peptides predicted to have no AMP activity.

[2] = test system: Escherichia coli K12 or Escherichia coli BL21; assay: Antimicrobial activity, relative growth inhibition in broth microdilution (Gram-neg.); type: cell-based; set-up: key to Activity against Gram-neg.: ++: highly active (comparable to oncocin); +: moderately active; +/-: moderately active without clear dose dependency; -: no activity; antimicrobial activity compared with oncocin: dose or concentration left out as unconfirmed; conditions: for Activity against Gram-neg.: Escherichia coli in Miller-Hinton broth, inoculum 1-2 x 10^7 cfu/ml, 100 µl + 20 µl test substance, 2n dilution series from 1 mg/ml down to 31 µg/ml, 18-24 h 37 °C, photometer 600 nm, duplicates
Protocol: as §1, §2

| Substance | Activity against Gram-pos. [1] | Activity against Gram-neg. [2] | dose dependent maximal growth reduction ([1]; B. subtilis cultures, high concentrations required, vs control without test substance, OD 600 nm) [%] | antimicrobial activity compared with oncocin ([2]; E. coli cultures, low concentrations between 3 and 60) | dose dependent maximal growth reduction ([2]; E. coli cultures, vs control without test substance, OD 600 nm) |
| --- | --- | --- | --- | --- | --- |
| AGVPRFRFGPPE [Iguana-10, predicted antimicrobial peptide from marine iguana proteome, …] | +/- | ++ |  |  |  |
| GGRRGSI [Iguana-02, predicted antimicrobial peptide from marine iguana proteome, GGRRGSI] | +/- | +/- |  |  |  |
| GSFPKEAIVQK [Iguana-07, predicted antimicrobial peptide from marine iguana proteome, …] |  | +/- |  |  |  |
| IADPDQFVLKPQ [Iguana-15, predicted antimicrobial peptide from marine iguana proteome, …] | +/- | + |  |  |  |
| IFELDGALYR [Iguana-non-04] | - | - |  |  |  |
| IIPNEDFS [Iguana-05, predicted antimicrobial peptide from marine iguana proteome, IIPNEDFS] |  | - |  |  |  |
| KKLYISKGCMSKSLC [Iguana-04, predicted antimicrobial peptide from marine iguana proteome, …] | ++ | ++ | ~95 | exceeded even the oncocin activity | approx. 75% |
| KKPLITMDEIP [Iguana-11, predicted antimicrobial peptide from marine iguana proteome, …] | ++ | + |  |  |  |
| LKVPELNV [Iguana-non-02] | - | - |  |  |  |
| LPTKLDSAFIRKDPFG [Iguana-14, predicted antimicrobial peptide from marine iguana proteome, …] | +/- | + |  |  |  |
| LSLSRISIP [Iguana-06, predicted antimicrobial peptide from marine iguana proteome, …] |  | +/- |  |  |  |
| LSRPGVLERFLPDKP [Iguana-16, predicted antimicrobial peptide from marine iguana proteome, …] | + | + |  |  |  |
| MPKFHMPKF [Iguana-17, predicted antimicrobial peptide from marine iguana proteome, …] | ++ | ++ |  |  |  |
| NLVSVDERLV [Iguana-non-03] | - | - |  |  |  |
| RGQYG [Iguana-09, predicted antimicrobial peptide from marine iguana proteome, RGQYG] |  | + |  |  |  |
| RGSIGGGRRGSI [Iguana-03, predicted antimicrobial peptide from marine iguana proteome, …] | +/- | - |  |  |  |
| RLTPFVEPRY [Iguana-12, predicted antimicrobial peptide from marine iguana proteome, …] | +/- | + |  |  |  |
| SALWVVER [Iguana-non-01] | - | - |  |  |  |
| SYFVKRPPGV [Iguana-13, predicted antimicrobial peptide from marine iguana proteome, …] | +/- | +/- |  |  |  |
| VDKPPYLPRPRPPRRIYNR-NH2 [Oncocin, well-studied AMP used as positive control, …-NH2, reference compound] | ++ | ++ |  |  |  |
| VDPQKV [Iguana-08, predicted antimicrobial peptide from marine iguana proteome, VDPQKV] |  | + |  |  |  |
| YKFYKA [Iguana-01, predicted antimicrobial peptide from marine iguana proteome, YKFYKA] | + | + |  |  |  |
